Measurements as given in PubChem BioAssay (NCI).
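GI50 is the concentration that inhibits growth by half. TGI denotes the concentration required for complete inhibition of growth.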

Columns and labels:
Assay in all cases: growth of human tumour cells (NCI), 384-well format
HT29 colon = test system: HT29 colon
K-562 leukemia = test system: K-562 leukemia
CAKI-1 renal = test system: CAKI-1 renal
HOP-62 NSCLC = test system: HOP-62 NSCLC
SF-268 CNS = test system: SF-268 CNS
NCI-H322M lung = test system: NCI-H322M lung
MALME-3M melanoma = test system: MALME-3M melanoma
OVCAR-5 ovarian = test system: OVCAR-5 ovarian
MDA-MB-231 breast = test system: MDA-MB-231 breast
MCF7 breast = test system: MCF7 breast
PC-3 prostate = test system: PC-3 prostate
TK-10 renal = test system: TK-10 renal
SF-539 CNS = test system: SF-539 CNS
NCI-H522 lung = test system: NCI-H522 lung
A549 NSCLC = test system: A549 NSCLC
NCI-H23 lung = test system: NCI-H23 lung
IGROV1 ovarian = test system: IGROV1 ovarian
COLO 205 colon = test system: COLO 205 colon
T-47D breast = test system: T-47D breast
SF-295 CNS = test system: SF-295 CNS
OVCAR-8 ovarian = test system: OVCAR-8 ovarian
HOP-92 NSCLC = test system: HOP-92 NSCLC
M14 melanoma = test system: M14 melanoma
SK-MEL-28 melanoma = test system: SK-MEL-28 melanoma
OVCAR-3 ovarian = test system: OVCAR-3 ovarian
SN12C renal = test system: SN12C renal
HS 578T breast = test system: HS 578T breast
KM12 colon = test system: KM12 colon
ACHN renal = test system: ACHN renal
MDA-MB-468 breast = test system: MDA-MB-468 breast
SK-MEL-2 melanoma = test system: SK-MEL-2 melanoma
SNB-75 CNS = test system: SNB-75 CNS
BT-549 breast = test system: BT-549 breast
UO-31 renal = test system: UO-31 renal
A498 renal = test system: A498 renal
HL-60(TB) leukemia = test system: HL-60(TB) leukemia
UACC-257 melanoma = test system: UACC-257 melanoma
MOLT-4 leukemia = test system: MOLT-4 leukemia
EKVX NSCLC = test system: EKVX NSCLC
U251 glioblastoma = test system: U251 glioblastoma
DU-145 prostate = test system: DU-145 prostate
HCT-15 colon = test system: HCT-15 colon
UACC-62 melanoma = test system: UACC-62 melanoma
NCI-H226 lung = test system: NCI-H226 lung
SR leukemia = test system: SR leukemia
SNB-19 CNS = test system: SNB-19 CNS
MDA-MB-435 melanoma = test system: MDA-MB-435 melanoma
RXF 393 renal = test system: RXF 393 renal
SW-620 colon = test system: SW-620 colon
HCT-116 colon = test system: HCT-116 colon
OVCAR-4 ovarian = test system: OVCAR-4 ovarian

Compound: CNC(=O)c1cn(C[C@H](F)CCc2ccc(NC(=O)Cc3cc(OC4CC(F)(F)C4)cc(C)n3)nn2)nn1
- GI50 (HT29 colon): > 100 µM
- TGI (HT29 colon): > 100 µM
- GI50 (K-562 leukemia): 85.1 µM
- TGI (K-562 leukemia): > 100 µM
- GI50 (CAKI-1 renal): 380 nM
- TGI (CAKI-1 renal): > 100 µM
- GI50 (HOP-62 NSCLC): 127 nM
- TGI (HOP-62 NSCLC): 594 nM
- GI50 (SF-268 CNS): 407 nM
- TGI (SF-268 CNS): > 100 µM
- GI50 (NCI-H322M lung): 77.2 nM
- TGI (NCI-H322M lung): 321 nM
- GI50 (MALME-3M melanoma): > 100 µM
- TGI (MALME-3M melanoma): > 100 µM
- GI50 (OVCAR-5 ovarian): > 100 µM
- TGI (OVCAR-5 ovarian): > 100 µM
- GI50 (MDA-MB-231 breast): 389 nM
- TGI (MDA-MB-231 breast): > 100 µM
- GI50 (MCF7 breast): > 100 µM
- TGI (MCF7 breast): > 100 µM
- GI50 (PC-3 prostate): > 100 µM
- TGI (PC-3 prostate): > 100 µM
- GI50 (TK-10 renal): 310 nM
- TGI (TK-10 renal): > 100 µM
- GI50 (SF-539 CNS): > 100 µM
- TGI (SF-539 CNS): > 100 µM
- GI50 (NCI-H522 lung): 310 nM
- TGI (NCI-H522 lung): > 100 µM
- GI50 (A549 NSCLC): 27.8 nM
- TGI (A549 NSCLC): 87.9 nM
- GI50 (NCI-H23 lung): > 100 µM
- TGI (NCI-H23 lung): > 100 µM
- GI50 (IGROV1 ovarian): > 100 µM
- TGI (IGROV1 ovarian): > 100 µM
- GI50 (COLO 205 colon): > 100 µM
- TGI (COLO 205 colon): > 100 µM
- GI50 (T-47D breast): > 100 µM
- TGI (T-47D breast): > 100 µM
- GI50 (SF-295 CNS): 1510 nM
- TGI (SF-295 CNS): > 100 µM
- GI50 (OVCAR-8 ovarian): > 100 µM
- TGI (OVCAR-8 ovarian): > 100 µM
- GI50 (HOP-92 NSCLC): > 100 µM
- TGI (HOP-92 NSCLC): > 100 µM
- GI50 (M14 melanoma): > 100 µM
- TGI (M14 melanoma): > 100 µM
- GI50 (SK-MEL-28 melanoma): > 100 µM
- TGI (SK-MEL-28 melanoma): > 100 µM
- GI50 (OVCAR-3 ovarian): > 100 µM
- TGI (OVCAR-3 ovarian): > 100 µM
- GI50 (SN12C renal): 39.8 nM
- TGI (SN12C renal): 320 nM
- GI50 (HS 578T breast): 72.1 nM
- TGI (HS 578T breast): 533 nM
- GI50 (KM12 colon): 946 nM
- TGI (KM12 colon): > 100 µM
- GI50 (ACHN renal): > 100 µM
- TGI (ACHN renal): > 100 µM
- GI50 (MDA-MB-468 breast): > 100 µM
- TGI (MDA-MB-468 breast): > 100 µM
- GI50 (SK-MEL-2 melanoma): 436 nM
- TGI (SK-MEL-2 melanoma): > 100 µM
- GI50 (SNB-75 CNS): > 100 µM
- TGI (SNB-75 CNS): > 100 µM
- GI50 (BT-549 breast): > 100 µM
- TGI (BT-549 breast): > 100 µM
- GI50 (UO-31 renal): > 100 µM
- TGI (UO-31 renal): > 100 µM
- GI50 (A498 renal): 163 nM
- TGI (A498 renal): 492 nM
- GI50 (HL-60(TB) leukemia): > 100 µM
- TGI (HL-60(TB) leukemia): > 100 µM
- GI50 (UACC-257 melanoma): > 100 µM
- TGI (UACC-257 melanoma): > 100 µM
- GI50 (MOLT-4 leukemia): 66.8 µM
- TGI (MOLT-4 leukemia): > 100 µM
- GI50 (EKVX NSCLC): > 100 µM
- TGI (EKVX NSCLC): > 100 µM
- GI50 (U251 glioblastoma): 119 nM
- TGI (U251 glioblastoma): > 100 µM
- GI50 (DU-145 prostate): 401 nM
- TGI (DU-145 prostate): 7.68 µM
- GI50 (HCT-15 colon): > 100 µM
- TGI (HCT-15 colon): > 100 µM
- GI50 (UACC-62 melanoma): > 100 µM
- TGI (UACC-62 melanoma): > 100 µM
- GI50 (NCI-H226 lung): > 100 µM
- TGI (NCI-H226 lung): > 100 µM
- GI50 (SR leukemia): 18.8 µM
- TGI (SR leukemia): > 100 µM
- GI50 (SNB-19 CNS): > 100 µM
- TGI (SNB-19 CNS): > 100 µM
- GI50 (MDA-MB-435 melanoma): > 100 µM
- TGI (MDA-MB-435 melanoma): > 100 µM
- GI50 (RXF 393 renal): 27.6 nM
- TGI (RXF 393 renal): 110 nM
- GI50 (SW-620 colon): > 100 µM
- TGI (SW-620 colon): > 100 µM
- GI50 (HCT-116 colon): > 100 µM
- TGI (HCT-116 colon): > 100 µM
- GI50 (OVCAR-4 ovarian): > 100 µM
- TGI (OVCAR-4 ovarian): > 100 µM
